Assay results published in PubChem BioAssay AID463203 (Broad Institute, 2010).
Active and inactive are the calls of the source.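 How the source made its calls: active means more than half of replicate measurements showing over 20% loss of kinase signal relative to plate controls; inconclusive means some but at most half of replicates over 20% loss; inactive means no replicate over 20% signal loss.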

target: Glycogen synthase kinase-3 alpha (Homo sapiens) (UniProt P49840); assay: concentration-response blocking of human GSK3A – biochemical, luminescence, cell-free homogeneous, retest, dose response (AID 463203); settings: GSK-3 alpha enzyme, ADP-Glo luminescence, 60 min
Sequence (P49840 whole entry, looked up): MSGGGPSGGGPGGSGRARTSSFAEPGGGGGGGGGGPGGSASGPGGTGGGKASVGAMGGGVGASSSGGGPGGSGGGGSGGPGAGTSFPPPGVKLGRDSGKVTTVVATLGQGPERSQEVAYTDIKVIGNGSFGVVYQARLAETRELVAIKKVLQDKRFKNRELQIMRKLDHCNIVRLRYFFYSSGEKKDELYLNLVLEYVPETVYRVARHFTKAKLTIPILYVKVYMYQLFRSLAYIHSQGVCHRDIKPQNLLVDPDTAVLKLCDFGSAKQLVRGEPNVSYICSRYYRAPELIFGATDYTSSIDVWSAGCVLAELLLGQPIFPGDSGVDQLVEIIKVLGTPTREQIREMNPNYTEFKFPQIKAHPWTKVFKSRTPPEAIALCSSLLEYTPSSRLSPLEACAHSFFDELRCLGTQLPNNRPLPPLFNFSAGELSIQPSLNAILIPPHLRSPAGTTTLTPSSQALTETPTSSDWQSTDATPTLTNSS

| Structure (SMILES) | AC50 |
| --- | --- |
| CCn1c2ccc(F)cc2c2nc3ccccc3nc21 | > 30 µM (inactive) |
| CN1/C(=C/C2CC(=O)NC2=O)C(C)(C)c2ccccc21 (stereo unspecified) | 5.14 µM |
| O=C1NC(=O)/C(=C\c2ccc(OCc3cccc(C(=O)O)c3)c(Cl)c2)N1 | 4.85 µM |
| Cc1cccc(N2CCN(C(=O)c3cc4c(=O)[nH]c5ccccc5c4n3C)CC2)c1C | > 30 µM (inactive) |
| Cc1nc(SCC(=O)NCC2CCCO2)c2c(C)c(C)sc2n1 (stereo unspecified) | > 30 µM (inactive) |
| COCCCNc1nc2ccccc2[nH]c1=O | > 30 µM (inactive) |
| Cc1cccc(Nc2nc(C)cc(C)n2)c1 | > 30 µM (inactive) |
| COc1ccccc1C(=O)NNC(=O)c1cccc(F)c1 | > 30 µM (inactive) |
| CCOc1ccc(-n2c(O)c(C=NCCCn3ccnc3)c(=O)[nH]c2=O)cc1 | 22.4 µM |
| CCc1ccc(/C=c2\s/c(=C\C(=O)C(C)(C)C)[nH]c2=O)cc1 | > 30 µM (inactive) |
| O=Cc1cc(N=Nc2ccc(S(=O)(=O)O)cc2)ccc1O | > 30 µM (inactive) |
| c1ccc(-c2noc(-c3ccc4c(c3)OCO4)n2)cc1 | > 30 µM (inactive) |
| Cc1ccc(Cn2cc(/C=N/Nc3ccc([N+](=O)[O-])cn3)c3ccccc32)cc1 | > 30 µM (inactive) |
| COc1ccc(-c2nc(N)ncc2-c2ccc(OC)c(OC)c2)c(O)c1 | 29.2 µM |
| CC(=O)Nc1cccc(-c2csc(NCc3ccccc3)n2)c1 | > 30 µM (inactive) |
| CCOc1ccc(C(=O)c2cnc3ccccc3c2N2CCN(CC)CC2)cc1 | > 30 µM (inactive) |
| CCn1ccc(C(=O)Nc2ccsc2C(=O)OC)n1 | 30.8 µM |
| Cc1ccc(-c2nnc(N3CCN(C(=O)COc4cccc(C)c4)CC3)c3ccccc23)cc1 | > 30 µM (inactive) |
| CCNc1ccccc(C(=O)/C=C/c2ccc3c(c2)OCO3)c1=O | > 30 µM (inactive) |
| CSc1ccc(/C=C2\NC(=O)NC2=O)cc1 | 27.9 µM |
| O=[N+]([O-])c1cccnc1NCCc1ccccc1 | > 30 µM (inactive) |
| CN1/C(=C/C(=O)C2CC2)C(C)(C)c2ccccc21 | > 30 µM (inactive) |
| Cc1ccc(N=c2oc3cc(O)ccc3cc2C(N)=O)cc1 | 2.17 µM |
| Cc1sc2ncnc(NCCN3CCOCC3)c2c1C | > 30 µM (inactive) |
| COC(=O)c1c(C)c(OC(=O)c2c(C)cc(O)c(C=O)c2O)cc(C)c1O | > 30 µM (inactive) |
| CN(C)c1cccc(C(=O)N/N=C/c2ccccc2F)c1 | > 30 µM (inactive) |

| Structure (SMILES) | AC50 |
| --- | --- |
| COc1ccc(-c2csc3nc(C)nc(N4CCC(C)CC4)c23)cc1OC | > 30 µM (inactive) |
| CC(=O)Nc1cccc(-c2csc(Nc3ccccn3)n2)c1 | > 30 µM (inactive) |
| Brc1ccc(C2=Nn3c(nnc3-c3cccnc3)SC2)s1 | > 30 µM (inactive) |
| Cc1nc(SCCC(C)C)c([N+](=O)[O-])[nH]1 | > 30 µM (inactive) |
| S=C(NCCC1=CCCCC1)Nc1ccccc1 | > 30 µM (inactive) |
| Cc1ccc2c(c1)COc1c3ccc(C(=O)N4CCOCC4)cc3nn1-2 | > 30 µM (inactive) |
| O=C1CCCN1CCCNc1ncccc1[N+](=O)[O-] | > 30 µM (inactive) |
| O=c1[nH]c(=S)n(C2CC2)c(O)c1C=NCc1cccnc1 | 28.2 µM |
| CN1CCN(c2ccccc2NC(=O)c2ccc(-c3ccccc3[N+](=O)[O-])o2)CC1 | 4.6 µM |
| CSc1nc(NCC(C)C)nc(N2CCOCC2)n1 | > 30 µM (inactive) |
| CCCCn1c(O)c(C(CC)=NCCCn2ccnc2)c(=O)[nH]c1=O | 13.9 µM |
| COc1ccc(NC(=O)c2c(Nc3ccccc3)sc(C(=O)c3ccc(F)cc3)c2N)cc1 | > 30 µM (inactive) |
| Cc1ccc2oc(=O)c3cnn(CC(=O)N4CCCCC4C)c3c2c1 (stereo unspecified) | > 30 µM (inactive) |
| COc1ccccc1C(=O)NC(C)c1ccccc1 (stereo unspecified) | > 30 µM (inactive) |
| Nc1nc(SCC(=O)Nc2ccc(Oc3ccccc3)cc2)n[nH]1 | > 30 µM (inactive) |
| N#C/C(=C/Nc1ccccc1)c1ccsc1 | > 30 µM (inactive) |
| CCN1CCN(c2c(Cl)cccc2NC(=O)c2cc3ccccc3o2)CC1 | > 30 µM (inactive) |
| COc1ccc2ccccc2c1/C=N/NC(=O)c1sc(N)c(C#N)c1C | 25.3 µM |
| CCOC(=O)c1cc(-c2ccc(F)cc2)n(CC(=O)NCc2ccccn2)c1C | > 30 µM (inactive) |
| O=C1NC(=Nc2cccc(O)c2)S/C1=C\c1cccc([N+](=O)[O-])c1 | > 30 µM (inactive) |
| O=C(CCSc1nc(-c2ccc3c(c2)OCO3)cc(C(F)(F)F)n1)NCc1ccco1 | > 30 µM (inactive) |
| CCCNC(=O)NC(C(=O)OC)C12CC3CC(CC(C3)C1)C2 (stereo unspecified) | > 30 µM (inactive) |
| Fc1cccc(Nc2nc(-c3ccncc3)nc3ccccc23)c1 | > 30 µM (inactive) |
| O=[N+]([O-])c1ccc(-c2nnc(CNC3CCCC3)o2)cc1 | > 30 µM (inactive) |
| COc1ccc(-c2noc(CCC(=O)Nc3nc4ccccc4s3)n2)cc1 | > 30 µM (inactive) |
| COc1ccc(C2NC(=O)NC(C)=C2C(=O)OCc2ccc3c(c2)OCO3)cc1OC (stereo unspecified) | 10.2 µM |

| Structure (SMILES) | AC50 |
| --- | --- |
| CCN(C(=O)CN1CCCC(C)C1)c1c(N)n(Cc2ccccc2)c(=O)[nH]c1=O (stereo unspecified) | > 30 µM (inactive) |
| CCOc1ccccc1-n1c(O)c(C=NCc2ccc3c(c2)OCO3)c(=O)[nH]c1=O | 17.5 µM |
| O=C(c1ccc2c3n(nc2c1)-c1ccccc1CO3)N1CCCCC1 | 26.4 µM |
| Cc1cc(C)c[n+](C2=C([O-])c3ccccc3C(=O)/C2=N\S(=O)(=O)c2cccs2)c1 | > 30 µM (inactive) |
| Brc1cccc(CSc2nnc(-c3ccncc3)o2)c1 | 7.58 µM |
| CC(=O)C(Sc1ccc2nnc(-c3ccc(C)cc3)n2n1)C(C)=O | > 30 µM (inactive) |
| CC(OC(=O)c1cccc(N2C(=O)c3ccccc3C2=O)c1)C(=O)Nc1ccc(N(C)C)cc1 (stereo unspecified) | > 30 µM (inactive) |
| CCNC(=S)NNC(=O)c1cccs1 | > 30 µM (inactive) |
| Cc1ccc(-c2nc3ncccn3c2Nc2ccc3c(c2)OCCO3)cc1 | > 30 µM (inactive) |
| CCC(C)c1ccc(NC(=S)NCc2cccs2)cc1 (stereo unspecified) | > 30 µM (inactive) |
| NS(=O)(=O)c1ccc(Nc2nc(-c3ccc(F)cc3)cs2)cc1 | 26.2 µM |
| CC1=C(C(=O)OC2CCCCC2)C(c2cccs2)n2c(nc3ccccc32)N1 (stereo unspecified) | > 30 µM (inactive) |
| CC(=NCCCn1ccnc1)c1c(O)n(C)c(=O)n(C)c1=O | > 30 µM (inactive) |
| Cc1cccc(C)c1NC(=O)COC(=O)Cc1ccsc1 | > 30 µM (inactive) |
| CS(=O)(=O)N1CCN(c2ccc(NC(=O)c3ccc(Br)o3)cc2)CC1 | > 30 µM (inactive) |
| COc1cccc(C(C[N+](=O)[O-])c2c(C)[nH]n(-c3ccccc3)c2=O)c1 (stereo unspecified) | > 30 µM (inactive) |
| CC(/C=N/NC(=O)c1nnn(-c2nonc2N)c1C(C)C)=C\c1ccco1 | > 30 µM (inactive) |
| O=[N+]([O-])c1ccccc1-c1cc(-c2ccccc2O)n[nH]1 | > 30 µM (inactive) |
| O=C(CSc1nnc(-c2ccc(O)cc2)o1)Nc1cccc(O)c1 | 21.6 µM |
| Nc1nc(SCCOc2ccccc2)n[nH]1 | > 30 µM (inactive) |
| COc1cccc(N(CC(=O)Nc2cccc(C(C)=O)c2)S(C)(=O)=O)c1 | > 30 µM (inactive) |
| S=C(Nc1ccc(Cl)cc1)Nc1cccc2cnccc12 | > 30 µM (inactive) |
| CCOC(=O)CSc1ncnc2c(C(=O)OCC)c3n(c12)CCC3 | > 30 µM (inactive) |
| COC(=O)c1ccc(CSc2nnc(-c3ccncc3)n2Cc2ccccc2)o1 | > 30 µM (inactive) |
